The values that follow come from patent publication US20210238138A1, “Method for improving nucleation of crystals from solution” (Université Libre de Bruxelles, priority 2018, published 2021).

Structures are written as SMILES.

Data set [1] is described as follows: Maturing of acetylsalicylic acid crystals (growth treatment, early filtration). Type of data set: physicochemical. As to conditions: 3 m tubing, Tc 15° C., σ 4.5, 30 mL/min; for Sphere Equivalent Diameter: thickness set to ⅕ of width. As for the experimental part: Obtaining different crystal sizes as end-product then depends on the time that is given to the crystals to mature further. […] To further proof the effect of early filtration (see table 10), the liquor of tests 43 and 44 were also directly filtered after exiting the tubing (test 49 and 50, respectively); the product of test 44 was also collected for 2 minutes and filtered afterwards (test 51).

Test in data set [2]: as above
In kind it is physicochemical. As to conditions: 3 m tubing.

[3] abbreviates: test 49: 200 mg/mL ethanol/water 50/50 vol %, restriction 1 of 250 μm ID, filtration At exit.
The mark [4] stands for this setting: test 50: 200 mg/mL ethanol/water 50/50 vol %, restriction 2 of 250 μm ID, filtration At exit.
Where [5] appears, read: test 51: 200 mg/mL ethanol/water 50/50 vol %, restriction 2 of 250 μm ID, filtration After 120 s.
Where [6] appears, read: test 45: 200 mg/mL ethanol/water 50/50 vol %, Tc 10° C., σ 6.7, 30 mL/min, no restrictions, Growth to equilibrium in tubing.
[7] abbreviates: test 46: 200 mg/mL ethanol/water 50/50 vol %, Tc 10° C., σ 6.7, 30 mL/min, no restrictions, filtration on 16 μm glass filter after 60 s.
Setting [8] is: test 47: 200 mg/mL ethanol/water 50/50 vol %, Tc 10° C., σ 6.7, 30 mL/min, no restrictions, filtration on 16 μm glass filter after 90 s.
Setting [9] is: test 48: 200 mg/mL ethanol/water 50/50 vol %, Tc 10° C., σ 6.7, 30 mL/min, no restrictions, Addition to saturated solution.

On to `CC(=O)Oc1ccccc1C(=O)O` [Acetylsalicylic acid, acetylsalicylic acid], for which the Crystal length in data set [1] (setting [3]) is given as 104 ± 55 μm; in data set [1] (setting [5]) it was 155 ± 91 μm; in data set [2] (setting [6]), 500 ± 230 μm; in data set [2] (setting [7]), 359 ± 190 μm; in data set [2] (setting [8]) it was 646 ± 391 μm; in data set [2] (setting [9]), 172 ± 66 μm. The Crystal length in data set [2] (test 50: 200 mg/mL ethanol/water 50/50 vol %, Tc 15° C., σ 4.5, 30 mL/min, restriction 2 of 250 μm ID, filtration At exit) came to 63 ± 36 μm. Also, the Crystal width in data set [1] (setting [3]) is given as 28 ± 13 μm; in data set [1] (setting [4]) it was 23 ± 17 μm; in data set [1] (setting [5]) it was 36 ± 17 μm; in data set [2] (setting [6]), 69 ± 27 μm; in data set [2] (setting [7]), 66 ± 35 μm; in data set [2] (setting [8]), 38 ± 23 μm. Moreover, in data set [2] (setting [9]), the Crystal width came out at 38 ± 13 μm. Also, the “Sphere Equivalent Diameter” value turned out to be 32 ± 7 μm in data set [1] (setting [3]); 24 ± 8 μm in data set [1] (setting [4]); 42 ± 11 μm in data set [2] (test 51: 200 mg/mL ethanol/water 50/50 vol %, Tc 15° C., σ 4.5, 30 mL/min, restriction 2 of 250 μm ID, filtration After 120 s, thickness set to ⅕ of width).
